Results reported in ChEMBL document CHEMBL1129698, “Homo-N-nucleosides: Incorporation into oligonucleotides and antiviral activity” (1996).
Converted amounts (≈) assume the structure as drawn.

Columns and labels:
Assay type in all cases: functional
[1] = Minimum cytotoxic concentration required to cause a microscopically detectable alteration of normal cell morphology
Human alphaherpesvirus 1 [2] = experiment: Compound was tested for the antiviral activity against herpes simplex virus-1 thymidine kinase deficient (HSV-1 TK-) B2006 strain
Human alphaherpesvirus 2 = experiment: Compound was tested for the antiviral activity against herpes simplex virus-2 (HSV-2) G strain
Human alphaherpesvirus 1 [3] = experiment: Compound was tested for the antiviral activity against herpes simplex virus-1 thymidine kinase deficient (HSV-1 TK-) VMW 1837 strain
Human alphaherpesvirus 1 [4] = experiment: Compound was tested for the antiviral activity against herpes simplex virus-1 (HSV-1) KOS strain

Question: Which results are given for `NC1=NC(=O)C2N=CN(C[C@H]3C[C@H](O)[C@@H](CO)O3)C2=N1` (stereo not given in full)?
Answer: MIC [1]: > 400 µg/mL; MIC (Human alphaherpesvirus 1 [2]): 12 µg/mL (≈ 42.7 µM); MIC (Human alphaherpesvirus 2): 5 µg/mL (≈ 17.8 µM); MIC (Human alphaherpesvirus 1 [3]): 12 µg/mL (≈ 42.7 µM); MIC (Human alphaherpesvirus 1 [4]): 5 µg/mL (≈ 17.8 µM)

Question: With `Nc1ncnc2c1ncn2C[C@H]1C[C@H](O)[C@@H](CO)O1` as the molecule, how does the MIC [1] read?
Answer: > 400 µg/mL

Question: What about the MIC (Human alphaherpesvirus 1 [2]) of the same molecule?
Answer: 10 µg/mL (≈ 37.7 µM)

Question: What about the MIC (Human alphaherpesvirus 2) of the same molecule?
Answer: 6 µg/mL (≈ 22.6 µM)

Question: And the MIC (Human alphaherpesvirus 1 [3])?
Answer: 8 µg/mL (≈ 30.2 µM)

Question: What about the MIC (Human alphaherpesvirus 1 [4]) of the same molecule?
Answer: 20 µg/mL (≈ 75.4 µM)

Question: For `Nc1nc2c(ncn2COCCO)c(=O)[nH]1` [ACYCLOVIR], which MIC [1] is on record?
Answer: > 400 µg/mL

Question: What about the MIC (Human alphaherpesvirus 1 [2]) of the same molecule?
Answer: 80 µg/mL (≈ 355 µM)

Question: What about the MIC (Human alphaherpesvirus 2) of the same molecule?
Answer: 0.03 µg/mL (≈ 0.133 µM)

Question: What about the MIC (Human alphaherpesvirus 1 [3]) of the same molecule?
Answer: 4 µg/mL (≈ 17.8 µM)

Question: What about the MIC (Human alphaherpesvirus 1 [4]) of the same molecule?
Answer: 0.02 µg/mL (≈ 0.0888 µM)

Question: Which MIC [1] does the source give for `O=c1[nH]c(=O)n([C@H]2C[C@H](O)[C@@H](CO)O2)cc1/C=C/Br` [BRIVUDINE] here?
Answer: 200 µg/mL (≈ 600 µM)

Question: And the MIC (Human alphaherpesvirus 1 [2])?
Answer: 20 µg/mL (≈ 60 µM)

Question: What about the MIC (Human alphaherpesvirus 2) of the same molecule?
Answer: > 100 µg/mL

Question: What about the MIC (Human alphaherpesvirus 1 [3]) of the same molecule?
Answer: 30 µg/mL (≈ 90.1 µM)

Question: And the MIC (Human alphaherpesvirus 1 [4])?
Answer: 0.007 µg/mL (≈ 0.021 µM)
